Assay results as given in patent publication US20030125242A1, “Polypeptides comprising multimers of nuclear localization signals or of protein transduction domains and their use for transferring molecules into cells” (priority 1999, published 2003).
Where no end group is shown, it is not given here.

Tests used:
[1] = system: 16HBE14o cells; experiment: tracking of DNA-TOTO-3/(PKKKRKVG)4-FITC complexes on their way to the nucleus; assay type: cell-based; details: 100% confluent cells, 5 μg CMVL-W, 24 μg peptide (N/P 8)
[2] = system: HeLa S6 cells; experiment: fluorescence in situ hybridisation of plasmid pEGFP after transfection (fluorescence microscopy and CLSM); assay type: cell-based; details: for location of plasmid DNA by CLSM: confocal laser scanning microscopy; for nuclear localization of plasmid DNA / cells showing signals in the nuclear region: fluorescence microscopy
[3] = system: 16HBE14o-cells; experiment: luciferase transfection assay with vector/DNA (CMVL-W) complexes; assay type: cell-based
[4] = system: 16HBE14o-cells; experiment: proportion of transgene (GFP) expressing cells by flow cytometry; assay type: cell-based; details: 1 μg pEGFP/(PKKKRKVG)4 complexes (N/P 8), 24 hours
Method: (A, B, D, E) Flow cytometry of 16HBE14o-cells transfected with DNA (pEGFP) or DNA complexed with (PKKKRKVG)4. Transfection was stopped after 24 hours. Cells were treated with trypsin and resuspended in medium. FCS: Forward scatter. FH-1: green channel for the GFP signal. (A, B) Control. Cells were only transfected with 1 μg pEGFP. Mean: 5.66. M1: 96% of total cells. M2: 4% of total cells. (D, E) Transfection with 1 μg pEGFP/(PKKKRKVG)4 complexes (N/P 8). Mean: 10.25. M1: 55% of total cells. M2: 45% of total cells. Near half the cell population expresses green fluorescence protein. (C, F) Fluorescence microscopy images of HeLa S6 cells transfected with (C) 1 μg pEGFP or (F) 1 μg pEGFP complexed with (PKKKRKVG)4 (N/P 8). Images were taken with a 40× objective (exposure time: 2 sec).
It was examined how many cells express the transgene product. 16HBE14o-cells were transfected with 1 μg pEGFP/(PKKKRKVG)4 complexes N/P 8 (24 hours) and measured by flow cytometry.

[5] = system: HeLa S6 cells; experiment: nuclear transport of BSA covalently linked to peptide in digitonin permeabilized cells; assay type: cell-based; details: 600 nM peptide/BSA-BODIPY, 30 min, fluorescence microscope
[6] = system: 16HBE14o-cells; experiment: inhibition of gene transfer by excess of free peptide, luciferase assay; assay type: cell-based; details: 30 fold molar excess of free peptide added 20 min before the complexes
[7] = system: DNase I; experiment: stability of vector/DNA complexes against DNase I digestion, agarose gel; assay type: physicochemical; details: higher enzyme concentrations (2.5, 5, 10 U DNase I), 1 h at 37° C., 3 μg pEGFP
[8] = system: COS7 cells; experiment: effect of peptide on gene transfer mediated by PEI, fractured Dendrimers and Lipofectamine; assay type: cell-based
[9] = system: COS7 cells; experiment: transfection efficiency at 4° C. compared with 37° C.; assay type: cell-based; details: 4 h transfection, COS7, luciferase after 24 h
Method: Cells were transfected with 1 μg of CMVL-W complexed with C(YGRKKRRQRRRG)24 at N/P=10 for 4 h at 4° C. or at 37° C. Luciferase activity was measured (10 sec) after 24 h.
At low temperatures such as 4° C. energy-dependent processes like the endosomal uptake are suppressed. For this reason transfection efficiency at 4° C. could be an indicator for the extend of endosomal uptake which takes place during the transfection period. Transfection was performed in the way as described above but for the 4° C. experiment the 24 well plate was incubated in a cool room at 4° C. for 4 h.

## (PKKKRKVG)4: tetramer of the wild-type SV40 large T-antigen NLS PKKKRKV with a glycin added at the end of each NLS (SEQ ID NO: 5) (also: tetramer of PKKKRKVG, linkage not given here)
[1]; 4 h
  localization of complexes after 4 h: most of the complexes were outside the nucleus
[1]; 30 h
  localization of peptide and DNA after 30 h: could be found in the nucleus
[2]; 2 hours
  location of plasmid DNA by CLSM: already plasmid DNA in the nucleus
  nuclear localization of plasmid DNA: plasmid DNA could be detected within the nuclear region
[2]; 24 hours
  location of plasmid DNA by CLSM: accumulated in the nucleus
  cells showing signals in the nuclear region: 68.9%
[3]
  cell transfection compared with DNA/Dendrimer-complexes: cell transfection as high as with DNA/Dendrimer-complexes
  cell transfection higher as with DNA/poly-L-lysine 2.9 kD/INF7a complexes: 1000 fold
  enhancement of cell transfection compared to studies without endosomolytic agents: 10 fold
[3]; 1 μg CMVL-W, 4.8 μg (PKKKRKVG)4 (N/P 8), luciferase after 24 h
  transfection rates compared with different non-viral vectors: almost as high transfection rates as with Dendrimer/DNA complexes
[3]; 1 μg CMVL-W, vs poly-L-lysine 2.9 kD/DNA complexes, luciferase after 24 h
  increase of relative light units (RLU) per mg cell protein in comparison to poly-L-lysine: 100 fold
[3]; 100% confluent cells, CMVL-W/Dendrimer complexes plus (PKKKRKVG)4
  transfection results in comparison to transfections without (PKKKRKVG)4: 10 fold
[3]; added in increasing concentrations to polymer/DNA complexes
  effect of added (PKKKRKVG)4 on transfection efficiency of PEI/CMVL-W and Dendrimer/CMVL-W complexes: significant increase of transfection efficiency
[4]
  M1 of total cells: 55%
  M2 of total cells: 45%
  Mean (GFP signal, flow cytometry): 10.25
  cells showing a GFP signal: Approximately 50%
[5]
  nuclear transport of covalently coupled BSA-BODIPY: transports the coupled BSA into the nucleus
[6]
  inhibition of gene transfer of DNA/(PKKKRKVG)4 complexes by free peptide: complete blockade of gene transfer
[7]
  DNA protection of complexed DNA against DNase I digestion: still can bee seen

## (PKTKRKVG)4: tetramer containing mutant large T-NLS (SEQ ID NO: 6); threonin mutant known to be transport deficient [reference compound]
[2]; 2 hours
  location of plasmid DNA by CLSM: arranged around the nuclear membrane
  nuclear localization of plasmid DNA: nuclear localization of plasmid DNA was not seen
[2]; 24 hours
  location of plasmid DNA by CLSM: arranged around the nuclear membrane
  cells showing signals in the nuclear region: 14.7%
[3]
  gene transfer efficiency compared with (PKKKRKVG)4/DNA complexes: significantly lower gene transfer efficiency
[5]
  nuclear transport of covalently coupled BSA-BODIPY: no signal was seen in the nucleus

## C(YGRKKRRQRRRG)2: dimer of HIV-1 TAT protein transduction domain YGRKKRRQRRR with G, N-terminal C (SEQ ID NO: 30) (CYGRKKRRQRRRG; also: dimer: C(YGRKKRRQRRRG)2, linkage not given here)
[8]; peptide N/P=1, then PEI 25 kD N/P 10
  effect on gene transfer mediated by PEI: enhances gene transfer
[8]; peptide N/P=1, then fractured Dendrimer N/P 4.5
  effect on gene transfer mediated by fractured dendrimers: enhances gene transfer
[9]
  decrease of transfection efficiency at 4° C. compared to 37° C.: 19 fold

## wheat germ agglutinin
[5]
  nuclear transport of covalently coupled BSA-BODIPY: no signal was seen in the nucleus
